# Earlier results, collected in patent US20150056314A1, “EXTRACTION METHOD FOR USE IN EXTRACTING BENEFICIAL COMPOUNDS FROM COFFEE BEANS” (Applied Food Sciences, Inc., priority 2003, published 2015).
# Legend:
# [1] = system: methylazoxymethanol-induced large intestinal tumors; conditions: hamster models
# [2] = system: rat stomach cancer; conditions: rat (Shimizu et al J Toxicol Sci 1999)
smiles,measurement,setting,value
O=C(/C=C/c1ccc(O)c(O)c1)O[C@@H]1C[C@](O)(C(=O)O)C[C@@H](O)[C@H]1O [chlorogenic acid],inhibition of methylazoxymethanol-induced large intestinal tumors,[1],inhibit
same,effect on rat stomach cancer,[2],chemopreventative effect
